Results: patent US11470846B2, “Herbicidal pyridino-/pyrimidino-thiazoles” (SYNGENTA PARTICIPATIONS AG, priority 2014, dated 2022)

Legend:
Type in all cases: in vivo
[1] = system: Abutilon theophrasti (ABUTH); experiment: Post-emergence herbicidal activity; details: post-emergence application, 1000 g/Ha, evaluated after 13 days, scale 0-5
Outline: (§1)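 Post-emergence spray at 8 days after sowing; formulation acetone/water 50:50 + 0.5% Tween 20. Glasshouse 24/16 °C, 14 h light, 65% RH, watered twice daily. Visual score at 13 d, 0 (no damage) to 5 (total damage).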

[2] = system: Echinochloa crus-galli (ECHCG); experiment: Post-emergence herbicidal activity; details: post-emergence application, 1000 g/Ha, evaluated after 13 days, scale 0-5
Outline: as §1

[3] = system: Amaranthus retroflexus (AMARE); experiment: Post-emergence herbicidal activity; details: post-emergence application, 1000 g/Ha, evaluated after 13 days, scale 0-5
Outline: as §1

Setaria faberi (SETFA) [4] = experiment: Post-emergence herbicidal activity; details: post-emergence application, 1000 g/Ha, evaluated after 13 days, scale 0-5
Outline: as §1

Lolium perenne (LOLPE) [5] = experiment: Post-emergence herbicidal activity; details: post-emergence application, 1000 g/Ha, evaluated after 13 days, scale 0-5
Outline: as §1

Zea Mays (ZEAMX) [6] = experiment: Post-emergence herbicidal activity; details: post-emergence application, 1000 g/Ha, evaluated after 13 days, scale 0-5
Outline: as §1

[7] = system: Abutilon theophrasti (ABUTH); experiment: Pre-emergence herbicidal activity; details: pre-emergence application, 1000 g/Ha, evaluated after 13 days, scale 0-5
Outline: (§2)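 Seeds sown in standard soil, sprayed one day after sowing with active ingredient formulated in acetone/water (50:50) with 0.5% Tween 20. Glasshouse at 24/16 °C day/night, 14 h light, 65% humidity, watered twice daily; damage scored after 13 days on a 0–5 scale (5 = total damage).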

[8] = system: Echinochloa crus-galli (ECHCG); experiment: Pre-emergence herbicidal activity; details: pre-emergence application, 1000 g/Ha, evaluated after 13 days, scale 0-5
Outline: as §2

[9] = system: Amaranthus retroflexus (AMARE); experiment: Pre-emergence herbicidal activity; details: pre-emergence application, 1000 g/Ha, evaluated after 13 days, scale 0-5
Outline: as §2

Setaria faberi (SETFA) [10] = experiment: Pre-emergence herbicidal activity; details: pre-emergence application, 1000 g/Ha, evaluated after 13 days, scale 0-5
Outline: as §2

Lolium perenne (LOLPE) [11] = experiment: Pre-emergence herbicidal activity; details: pre-emergence application, 1000 g/Ha, evaluated after 13 days, scale 0-5
Outline: as §2

Zea Mays (ZEAMX) [12] = experiment: Pre-emergence herbicidal activity; details: pre-emergence application, 1000 g/Ha, evaluated after 13 days, scale 0-5
Outline: as §2

Avena fatua (AVEFA) [13] = experiment: Post-emergence herbicidal activity; details: post-emergence application, 1000 g/Ha, evaluated after 13 days, scale 0-5
Outline: as §1

Oryza sativa (ORYSA) [14] = experiment: Post-emergence herbicidal activity; details: post-emergence application, 1000 g/Ha, evaluated after 13 days, scale 0-5
Outline: as §1

[15] = system: Triticum aestivium (TRZAW); experiment: Post-emergence herbicidal activity; details: post-emergence application, 1000 g/Ha, evaluated after 13 days, scale 0-5
Outline: as §1

[16] = system: Alopecurus myosuroides (ALOMY); experiment: Post-emergence herbicidal activity; details: post-emergence application, 1000 g/Ha, evaluated after 13 days, scale 0-5
Outline: as §1

Avena fatua (AVEFA) [17] = experiment: Pre-emergence herbicidal activity; details: pre-emergence application, 1000 g/Ha, evaluated after 13 days, scale 0-5
Outline: as §2

Oryza sativa (ORYSA) [18] = experiment: Pre-emergence herbicidal activity; details: pre-emergence application, 1000 g/Ha, evaluated after 13 days, scale 0-5
Outline: as §2

[19] = system: Triticum aestivium (TRZAW); experiment: Pre-emergence herbicidal activity; details: pre-emergence application, 1000 g/Ha, evaluated after 13 days, scale 0-5
Outline: as §2

[20] = system: Alopecurus myosuroides (ALOMY); experiment: Pre-emergence herbicidal activity; details: pre-emergence application, 1000 g/Ha, evaluated after 13 days, scale 0-5
Outline: as §2

How did the “Control of weed species, ABUTH (damage score)” value (shortened to “Control of weed species, ABUTH”) [1] turn out when `C#CC(C)(C)OC(=O)N(C)c1sc(-c2cccnc2)nc1C` [Compound B3, 1,1-dimethylprop-2-ynyl N-methyl-N-[4-methyl-2-(3-pyridyl)thiazol-5-yl]carbamate] was run?
Its value is 1.

And the “Control of weed species, ECHCG (damage score)” value (from here on “Control of weed species, ECHCG”) ([2]; Table 8)?
The value was 4.

What about the “Control of weed species, AMARE (damage score)” value (“Control of weed species, AMARE” for short) [3] of the same molecule?
Its value is 2.

What about the “Control of weed species, SETFA (damage score)” value (“Control of weed species, SETFA” for short) (Setaria faberi (SETFA) [4]) of the same molecule?
The value was 5.

What about the “Control of weed species, LOLPE (damage score)” value (“Control of weed species, LOLPE” for short) (Lolium perenne (LOLPE) [5]; Table 8) of the same molecule?
The value was 4.

What about the “Control of weed species, ZEAMX (damage score)” value (“Control of weed species, ZEAMX” for short) (Zea Mays (ZEAMX) [6]) of the same molecule?
The value was 5.

And the “Control of weed species, ABUTH” value [7]?
The value was 4.

And the “Control of weed species, ECHCG” value ([8]; Table 6)?
The value was 3.

What about the “Control of weed species, AMARE” value [9] of the same molecule?
Its value is 3.

And the “Control of weed species, SETFA” value (Setaria faberi (SETFA) [10])?
The value was 4.

What about the “Control of weed species, LOLPE” value (Lolium perenne (LOLPE) [11]; Table 6) of the same molecule?
The value was 3.

And the “Control of weed species, ZEAMX” value (Zea Mays (ZEAMX) [12])?
The value was 5.

How did the “Control of weed species, ABUTH” value [1] turn out when `C#CC(C)OC(=O)N(C)c1sc(-c2cccnc2)nc1C` (stereo not drawn) [Compound B2, 1-methylprop-2-ynyl N-methyl-N-[4-methyl-2-(3-pyridyl)thiazol-5-yl]carbamate] was run?
The value was 2.

What about the “Control of weed species, ECHCG” value ([2]; Table 8) of the same molecule?
Its value is 2.

And the “Control of weed species, AMARE” value [3]?
Its value is 2.

What about the “Control of weed species, SETFA” value (Setaria faberi (SETFA) [4]) of the same molecule?
The value was 5.

And the “Control of weed species, LOLPE” value (Lolium perenne (LOLPE) [5]; Table 8)?
Its value is 4.

What about the “Control of weed species, ZEAMX” value (Zea Mays (ZEAMX) [6]) of the same molecule?
Its value is 4.

What about the “Control of weed species, ABUTH” value [7] of the same molecule?
The value was 3.

What about the “Control of weed species, ECHCG” value ([8]; Table 6) of the same molecule?
The value was 1.

And the “Control of weed species, AMARE” value [9]?
Its value is 3.

And the “Control of weed species, SETFA” value (Setaria faberi (SETFA) [10])?
Its value is 5.

What about the “Control of weed species, LOLPE” value (Lolium perenne (LOLPE) [11]; Table 6) of the same molecule?
The value was 3.

What about the “Control of weed species, ZEAMX” value (Zea Mays (ZEAMX) [12]) of the same molecule?
Its value is 5.

Which results are given for `C#CCOC(=O)N(C)c1sc(-c2cccnc2)nc1C` [Compound B1, prop-2-ynyl N-methyl-N-[4-methyl-2-(3-pyridyl)thiazol-5-yl]carbamate]?
Control of weed species, ABUTH (damage score) [1]: 1; Control of weed species, ECHCG (damage score) ([2]; Table 8): 4; Control of weed species, AMARE (damage score) [3]: 1; Control of weed species, SETFA (damage score) (Setaria faberi (SETFA) [4]): 5; Control of weed species, LOLPE (damage score) (Lolium perenne (LOLPE) [5]; Table 8): 3; Control of weed species, ZEAMX (damage score) (Zea Mays (ZEAMX) [6]): 5; Control of weed species, ABUTH (damage score) [7]: 2; Control of weed species, ECHCG (damage score) ([8]; Table 6): 2; Control of weed species, AMARE (damage score) [9]: 2; Control of weed species, SETFA (damage score) (Setaria faberi (SETFA) [10]): 5; Control of weed species, LOLPE (damage score) (Lolium perenne (LOLPE) [11]; Table 6): 3; Control of weed species, ZEAMX (damage score) (Zea Mays (ZEAMX) [12]): 5

`Cc1nc(-c2cncc(C#N)c2)sc1N(C)C(=O)OC(C)(C)C` [Compound A7] was tested. Which “Control of weed species, ECHCG” value ([2]; Table 7) did it give?
Its value is 5.

And the “Control of weed species, AVEFA (damage score)” value (“Control of weed species, AVEFA” for short) (Avena fatua (AVEFA) [13])?
The value was 4.

And the “Control of weed species, ORYSA (damage score)” value (“Control of weed species, ORYSA” for short) (Oryza sativa (ORYSA) [14])?
Its value is 1.

And the “Control of weed species, LOLPE” value (Lolium perenne (LOLPE) [5]; Table 7)?
Its value is 3.

And the “Control of weed species, TRZAW (damage score)” value (“Control of weed species, TRZAW” for short) [15]?
The value was 2.

What about the “Control of weed species, ALOMY (damage score)” value (“Control of weed species, ALOMY” for short) [16] of the same molecule?
Its value is 1.

And the “Control of weed species, ECHCG” value ([8]; Table 5)?
The value was 2.

What about the “Control of weed species, AVEFA” value (Avena fatua (AVEFA) [17]) of the same molecule?
Its value is 4.

And the “Control of weed species, ORYSA” value (Oryza sativa (ORYSA) [18])?
The value was 1.

What about the “Control of weed species, LOLPE” value (Lolium perenne (LOLPE) [11]; Table 5) of the same molecule?
Its value is 2.

What about the “Control of weed species, TRZAW” value [19] of the same molecule?
Its value is 1.

What about the “Control of weed species, ALOMY” value [20] of the same molecule?
The value was 1.

Which “Control of weed species, ECHCG” value ([2]; Table 7) does the source give for `CCOC(=O)N(C)c1sc(-c2cccnc2)nc1C` [Compound A19, ethyl N-methyl-N-[4-methyl-2-(3-pyridyl)thiazol-5-yl]carbamate] here?
The value was 5.

What about the “Control of weed species, AVEFA” value (Avena fatua (AVEFA) [13]) of the same molecule?
The value was 3.

And the “Control of weed species, ORYSA” value (Oryza sativa (ORYSA) [14])?
The value was 0.

And the “Control of weed species, LOLPE” value (Lolium perenne (LOLPE) [5]; Table 7)?
Its value is 2.

What about the “Control of weed species, TRZAW” value [15] of the same molecule?
The value was 1.

And the “Control of weed species, ALOMY” value [16]?
The value was 1.

And the “Control of weed species, ECHCG” value ([8]; Table 5)?
The value was 5.

And the “Control of weed species, AVEFA” value (Avena fatua (AVEFA) [17])?
Its value is 1.

What about the “Control of weed species, ORYSA” value (Oryza sativa (ORYSA) [18]) of the same molecule?
The value was 0.

What about the “Control of weed species, LOLPE” value (Lolium perenne (LOLPE) [11]; Table 5) of the same molecule?
The value was 1.

And the “Control of weed species, TRZAW” value [19]?
The value was 0.

What about the “Control of weed species, ALOMY” value [20] of the same molecule?
The value was 1.
